Source: PMC9329436, “Optimization of the 4-anilinoquin(az)oline scaffold as epidermal growth factor receptor (EGFR) inhibitors for chordoma utilizing a toxicology profiling assay platform” (Scientific Reports, 2022)

Assays:
[1] = system: U-CH2 chordoma cell line; assay: Cell viability assay (alamarBlue, 72 h), U-CH2; format: cell-based, human; conditions: n = 4, 72 h
Protocol: (§1) Chordoma cell lines were cultured as described previously[10],[12],[33],[34]. Briefly, U-CH1 and U-CH2 cell lines were cultured in 4:1 IMDM:RPMI medium supplemented with 10% fetal bovine serum (FBS) and 1% penicillin/streptomycin in gel-coated flasks. […] CH22, UM-Chor1, U-CH12, and U-CH7 cell lines were cultured in RPMI medium supplemented with 10% FBS and 1% penicillin/streptomycin. The cell lines all undergo regular mycoplasma screening.
(§2) Cells were seeded in 384 well plates and were treated with test compound in quadruplicate 24 h after plating. Cell viability was assessed at 72 h using alamarBlue (ThermoFisher, USA). […] IC50 values were determined by four-parameter nonlinear regression analyses using GraphPad Prism™ version 8 software (San Diego, CA).

[2] = system: U-CH1 chordoma cell line; assay: Cell viability assay (alamarBlue, 72 h), U-CH1; format: cell-based, human; conditions: n = 4, 72 h
Protocol: as §1, §2

[3] = system: HL60 cells; assay: AsedaSciences SYSTEMETRIC Cell Health Screen (flow cytometry toxicity profiling); conditions: for Cell Health Toxcity Profile CC (DyeCycle Violet) / Cell Health Toxcity Profile CM (Cell morphology) / Cell Health Toxcity Profile CMI (Cell membrane integrity) / Cell Health Toxcity Profile GSH (Glutathione) / Cell Health Toxcity Profile MMP (Mitochondrial membrane depolarization) / Cell Health Toxcity Profile NMI1 (Nuclear membrane integrity 1) / Cell Health Toxcity Profile NMI2 (Nuclear membrane integrity 2) / Cell Health Toxcity Profile ROS (Reactive superoxide species) / Cell Health Toxcity Profile CHI: SYSTEMETRIC Cell Health Screen, assay n=2; for Cell Health Toxcity Profile CHI: classifier output; for CC: Cell Cycle score / CM: Cell morphology score / CMI: Cell membrane integrity score / GSH: Glutathione score / MMP: Mitochondrial membrane depolarization score / ROS: Reactive superoxide species score / NMI1: Nuclear membrane integrity 1 score / NMI2: Nuclear membrane integrity 2 score / CHI: Cell Health Index: HL60, 4 h, 5 nM–100 µM; for CC: Cell Cycle score / CM: Cell morphology score / CMI: Cell membrane integrity score / GSH: Glutathione score / MMP: Mitochondrial membrane depolarization score / ROS: Reactive superoxide species score / NMI1: Nuclear membrane integrity 1 score / NMI2: Nuclear membrane integrity 2 score: probability 0–1, n = 2; for CHI: Cell Health Index: probability (0–1) of high-risk class, n = 2
From the text: To prioritize further optimization, in addition to cellular potency, we utilized the AsedaSciences® […]® Cell Health Screen. This live cell flow cytometry (FC) screen was developed to assess human safety risk for candidate pharmaceutical small molecules at the early hit-to-lead stage of development. The screen works by estimating the risk using a supervised machine learning (ML) classifier to assess a multiparametric cellular stress phenotype, produced by the test compound, relative to a training set of known compounds (Table S1). This screen has been designed for early pipeline risk estimation regardless of pharmaceutical class/disease type, so it uses HL60 as the reporter cell line.
The ML classifier was trained with 300 historically known compounds (on market or withdrawn drugs, research compounds, etc.), which were divided into two outcome classes based upon literature, clinical trials, and market histories where applicable. This external curation informed an outcome of “high-risk” or “low-risk”. All 300 compounds were also processed through the automated FC screen, populating each of the two classes with frequency distributions of empirical cell-based phenotypes.
To estimate human safety risk for an unknown compound, the ML classifier assesses the similarity of the test compound’s cell-based phenotype to the distributions of phenotypes in the two outcome classes. […] Phenotypes are derived from twelve FC detection parameters, including light scatter and a series of fluorescent physiological reporter dyes, that track cell stress-related endpoints.
To produce the Cell Health Index, the ML classifier uses all twelve FC parameters simultaneously in a multidimensional logistic regression model, so the CHI contains the most predictive power. In addition to the Cell Health Index, Table 4 also reports probability scores for eight cell stress-related endpoints. These scores are produced individually by passing information to the ML classifier relating to parameters that inform that endpoint. For example, to produce the cell morphology (CM) score, the ML classifier only uses the FC detection parameters for forward scatter (informing change in cell diameter) and side scatter (informing change in optical granularity of the cell) to inform the model. Together, these eight endpoints provide a “biological fingerprint”, allowing assessment of the degree to which SAR series members behave differently across endpoints.
In a 384-well platform, HL60 cells were exposed to a 10-step, 3 × dilution series of each test compound (5 nM–100 µM) for 4 h at 37 °C with 5% CO2. Each dilution series was screened in duplicate, occupying a total of 20 wells, allowing 16 test compounds to be assayed per plate. Each row contained one positive and one negative control well, for a total of 16 replicate positive/negative control pairs on each assay plate. Compound formatting, cell deposition, and dye application were performed robotically so that final assay conditions comprised 100,000 cells in a 40 µL volume. After the 4 h compound exposure, cells were immediately stained with a panel of fluorescent dyes that report physiological signatures of both mitochondrial dysfunction and gross cell stress. Fluorescence and forward/side-scatter data were collected using automated FC with no gating. FC data are processed by an automated algorithm for producing quality control measures and ML classification of compound phenotypes. • 2. HL60 cell culture production
HL60 cells were produced as suspension cultures in glass 850 cm^2 roller bottles with vented caps, at 1 RPM, 5% CO2, and 37 °C. […] Culture density was maintained at or below 1 × 10^6 cells/mL.

| Structure (SMILES) | IC50 [1] [µM] | IC50 [2] [µM] | Cell Health Toxcity Profile CC (DyeCycle Violet) [3] | Cell Health Toxcity Profile CM (Cell morphology) [3] | Cell Health Toxcity Profile CMI (Cell membrane integrity) [3] | Cell Health Toxcity Profile GSH (Glutathione) [3] | Cell Health Toxcity Profile MMP (Mitochondrial membrane depolarization) [3] | Cell Health Toxcity Profile NMI1 (Nuclear membrane integrity 1) [3] | Cell Health Toxcity Profile NMI2 (Nuclear membrane integrity 2) [3] | Cell Health Toxcity Profile ROS (Reactive superoxide species) [3] | Cell Health Toxcity Profile CHI [3] | CC: Cell Cycle score [3] | CM: Cell morphology score [3] | CMI: Cell membrane integrity score [3] | GSH: Glutathione score [3] | MMP: Mitochondrial membrane depolarization score [3] | ROS: Reactive superoxide species score [3] | NMI1: Nuclear membrane integrity 1 score [3] | NMI2: Nuclear membrane integrity 2 score [3] | CHI: Cell Health Index [3] |
| --- | --- | --- | --- | --- | --- | --- | --- | --- | --- | --- | --- | --- | --- | --- | --- | --- | --- | --- | --- | --- |
| C#Cc1cccc(Nc2c(C#N)cnc3cc(Cl)ccc23)c1 [Compound 30] | > 100 | > 100 | 0.17 | 0.31 | 0.25 | 0.065 | 0.080 | 0.69 | 0.041 | 0.44 | 0.35 | – | – | – | – | – | – | – | – | – |
| C#Cc1cccc(Nc2c(C#N)cnc3cc(Br)ccc23)c1 [Compound 31] | > 100 | > 100 | 0.92 | 0.95 | 0.88 | 0.92 | 0.84 | 0.45 | 0.34 | 0.87 | 0.59 | – | – | – | – | – | – | – | – | – |
| CC(C(=O)O)c1cccc(C(=O)c2ccccc2)c1 (stereo not shown) [Ketoprofen, reference compound] | – | – | – | – | – | – | – | – | – | – | – | 0.050 | 0.00 | 0.030 | 0.010 | 0.010 | 0.18 | – | – | – |
| CC(C)(C)c1ccc(C(O)CCCN2CCC(C(O)(c3ccccc3)c3ccccc3)CC2)cc1 (stereo not shown) [Terfenadine, reference compound] | – | – | – | – | – | – | – | – | – | – | – | 0.98 | 1.00 | 1.00 | 1.00 | 1.00 | 1.00 | – | – | – |
| CN(CCOc1ccc(CC2SC(=O)NC2=O)cc1)c1ccccn1 (stereo not shown) [Rosiglitazone, reference compound] | – | – | – | – | – | – | – | – | – | – | – | 0.27 | 0.49 | 0.23 | 0.53 | 0.050 | 0.070 | 0.23 | 0.27 | 0.37 |
| CCc1nn(CCCN2CCN(c3cccc(Cl)c3)CC2)c(=O)n1CCOc1ccccc1 [Nefazodone, reference compound] | – | – | – | – | – | – | – | – | – | – | – | 0.97 | 0.97 | 1.00 | 0.99 | 1.00 | 1.00 | 0.73 | 0.87 | 0.78 |
| CN1CCN(CCCN2c3ccccc3Sc3ccc(Cl)cc32)CC1 [Prochlorperazine, reference compound] | – | – | – | – | – | – | – | – | – | – | – | 0.96 | 1.00 | 1.00 | 1.00 | 1.00 | 1.00 | 1.00 | 0.99 | – |
| O=C(O)CCc1nc(-c2ccccc2)c(-c2ccccc2)o1 [Oxaprozin, reference compound] | – | – | – | – | – | – | – | – | – | – | – | 0.060 | 0.00 | 0.090 | 0.030 | 0.000 | 0.16 | 0.040 | 0.12 | – |
| CC(CN1c2ccccc2Sc2ccccc21)N(C)C (stereo not shown) [Promethazine, reference compound] | – | – | – | – | – | – | – | – | – | – | – | 0.46 | 1.00 | 0.98 | 0.96 | 0.97 | 0.98 | 0.84 | 0.94 | 0.71 |
| COc1cc2ncnc(Nc3ccc(F)c(Cl)c3)c2cc1OCCCN1CCOCC1 [Gefitinib, reference compound] | – | – | – | – | – | – | – | – | – | – | – | 0.93 | 1.00 | 0.99 | 0.97 | 0.99 | 0.93 | 0.61 | 0.94 | 0.80 |
| COc1ccc(/C=C/C(=O)Nc2ccccc2C(=O)O)cc1OC [Tranilast, reference compound] | – | – | – | – | – | – | – | – | – | – | – | 0.10 | 0.020 | 0.13 | 0.030 | 0.17 | 0.12 | 0.73 | 0.30 | 0.32 |
| CC(C)NCC(O)COc1cccc2ccccc12 (stereo not shown) [Propranolol, reference compound] | – | – | – | – | – | – | – | – | – | – | – | 0.24 | 0.060 | 0.20 | 0.11 | 0.010 | 0.18 | 0.69 | 0.23 | – |
| CC(c1cc2ccccc2s1)N(O)C(N)=O (stereo not shown) [Zileuton, reference compound] | – | – | – | – | – | – | – | – | – | – | – | 0.11 | 0.020 | 0.010 | 0.020 | 0.060 | 0.070 | 0.17 | 0.080 | 0.19 |
